Where two headings read alike, the source gives them in different places.

One data set concerns SK-MES carcinoma. How it is done: (§1) In Vivo Evaluation of Antitumor Compounds Against Human Lung Carcinoma Xenografts
(§2) The compounds were prepared in the manner as described for Solution 2 of Example 10. Taxol (paclitaxel, Bristol Meyers Squibb), used as a control, was obtained as the marketed pharmaceutical drug.
(§3) Taxol itself was given as a split i.v. dose of 36 mg/kg, with the two 18 mg/kg doses separated by one hour. Vehicle control animals were dosed twice intravenously with half the total volume being given separated by one hour. The study was terminated on Day 60.
(§4) The results are summarized in Table 1 and include mean days of survival (MDS), number of toxic deaths, number of survivors, number of complete or partial responses, and number with stable disease. The mean days of survival is the number of days after which a SKMES neoplasm reached a size of 1.5 g and the animal was euthanized. A complete response is obtained if the tumor is not palpable at the end of the study. A partial response is obtained if the tumor shrinks to a size smaller than its size on Day 1 of the study.
(§5) A tumor scoring system was designed to provide a more quantitative ranking of efficacy (therapeutic potential) among the antitumor agents evaluated against the different human solid tumor xenografts. Each mouse in a study was given a score of from 1 to 10 at the end of the study. The scores can be summarized as follows:
(§6) The individual score for each mouse was averaged into a mean score for each treatment group. […]

Another data set concerns HCT116. The data set can be described thus: In vitro cytotoxicity, cell colony formation assay. The conditions noted are these: read-out: IN VITRO ID 50. Type of data set: cell-based. How it is done:
In Vitro cytotoxicity measured by the cell colony formation assay
Four hundred cells (HCT116) were plated in 60 mm Petri dishes containing 2.7 mL of medium (modified McCoy's 5a medium containing 10% fetal bovine serum and 100 units/mL penicillin and […] streptomycin). The cells were incubated in a CO2 incubator at 37 °C for 5 h for attachment to the bottom of Petri dishes. The compounds identified in Example 2 were made up fresh in medium at ten times the final concentration, and then 0.3 mL of this stock solution was added to the 2.7 mL of medium in the dish. The cells were then incubated with drugs for 72 h at 37 ° C. At the end of incubation the drug-containing media were decanted, the dishes were rinsed with 4 mL of Hank's Balance Salt Solution (HBSS), 5 mL of fresh medium was added, and the dishes were returned to the incubator for colony formation. The cell colonies were counted using a colony counter after incubation for 7 days.

Data set [1] has as its system NCI-H1299 (H1299) carcinoma. How it is done: as §1, §2, §3, §4, §5, §6
The treatment protocol for the H1299 test was identical to the SK-MES test protocol. […]

Data set [2] has as its system SKMES Human Lung Carcinoma Xenograft. How it is done: The compound was administered as a single bolus by the oral route in a study to investigate the efficacy of this compound against the SKMES human lung cancer xenograft.
Female Nu/Nu mice (6-8 weeks of age; implanted with 1 mm^3 SKMES lung carcinoma fragments in the flank) were sorted into four treatment groups of six mice each. SKMES size ranges and group mean SKMES size ranges were 126-448 mg and 238-241 mg, respectively. […] Treatments were administered as a single oral bolus on Day 1, and the study was terminated on Day 60.
The results are summarized in Table 13 and include mean days of survival (MDS), number of toxic deaths, number of survivors, number of complete or partial responses, and number with stable disease. The mean days of survival is the number of days after which a SKMES neoplasm reached a size of 2.0 g and the animal was euthanized. A complete response is obtained if the tumor is not palpable at the end of the study. A partial response is obtained if the tumor shrinks to a size smaller than its size on Day 1 of the study.
The total response rate was 100% with four complete responses and two partial responses. The total response rate is defined as the percentage of evaluable animals (excluding deaths due to procedure or toxicity) in a group that experience complete or partial responses at the termination of the study.

The subject of data set [3] is A2780 Human Ovarian Carcinoma Xenografts. As to the kind of experiment: In vivo evaluation against A2780 ovarian carcinoma xenografts. On the set-up: species or system NCr-nude mice. How it is done: In Vivo Evaluation of Antitumor Compounds Against A2780 Human Ovarian Carcinoma Xenografts
The A2780 group mean size range was 237-243 mg. Dosing was initiated on Day 1. […] Treatment groups are detailed in Table 5.

Data set [4] deals with A375 Human Melanoma Xenografts. As to the kind of experiment: In vivo evaluation against A375 melanoma xenografts. How it is done:
In Vivo Evaluation of Antitumor Compounds Against A375 Human Melanoma Xenografts
Antitumor compounds were prepared in a vehicle of 5% ethanol, 5% Cremophor and 90% isotonic saline in the manner as described for Solution 1 of Example 10. Taxol (paclitaxel; Bristol Meyers Squibb) and Taxotere (docetaxel; Rhône-Poulenc Rorer) were obtained as the marketed pharmaceutical drugs. The dosing volume was 0.3 ml per 20 g mouse.
Female NCr-nude mice were implanted subcutaneously with 1 mm^3 A375 melanoma fragments in the flank were sorted into treatment groups of six mice each, except the Taxotere treatment group which was a group of seven mice. […] Dosing was initiated on Day 1. The antitumor compounds were given i.v. at an estimated maximum tolerated dose (MTD) appropriate for each agent on a qd x 1 schedule (single administration of compound). The i.v. taxol was given on the qd x 1 schedule as two split doses (one hour between) of 12 mg/kg per split dose (total dose = 24 mg/kg). Taxol was also administered i.p. on a qd x 5 schedule at a daily dose of 18 mg/kg. Taxotere was given i.v. on a qd x 1 schedule at a dose of 70 mg/kg. The vehicle was administered i.v. to control mice in Group 1 on the qd x 1 schedule. The study was terminated on Day 60. Treatment groups are detailed in Table 7.
The results are summarized in Table 8 and include mean days of survival (MDS), number of toxic deaths, number of survivors, number of complete or partial responses, and number with stable disease. The mean days of survival is the number of days after which a neoplasm reached a size of 2.0 g and the animal was euthanized. A complete response is obtained […].

Data set [5] concerns VM46 Human Colon Carcinoma. The data set can be described thus: In vivo evaluation against VM46 colon carcinoma xenografts. More on the design: species or system NCr-nude mice. How it is done:
In Vivo Evaluation of Antitumor Compounds Against VM46 Human Colon Carcinoma
The VM46 tumor group mean size range was 181-188 mg. Dosing was initiated on Day 1. […] Taxotere was given i.v. at a dose of 70 mg/kg on a qd x 1 schedule. […] The study was terminated on Day 64. Treatment groups are detailed in Table 11.

The mark [6] stands for this setting: number of mice of six, i.v. split dose qd x 1, Taxol 36 mg/kg, 1755 49 mg/kg.
Setting [7] is: HCT116, 72 h with drug, colonies counted after 7 days, concentration producing 50% inhibition of colony formation.
Where [8] appears, read: 1755 49 mg/kg single oral bolus, six mice.
Setting [9] is: Group 4: 49 mg/kg single oral bolus Day 1, 6 mice, study to Day 60.
Setting [10] is: Group 5: 70 mg/kg i.v. qd x 1, group of six mice, study to Day 60.
Where [11] appears, read: i.v. qd x 1, Taxol 24 mg/kg, Taxotere 70 mg/kg.
The mark [12] stands for this setting: i.v. qd x 1, Taxol 24 mg/kg, Taxotere 70 mg/kg, 2.0 g cut-off.
Where [13] appears, read: Group 5: 70 mg/kg i.v. qd x 1, 7 mice, study to Day 60.
Setting [14] is: Group 5: 70 mg/kg i.v. qd x 1, 6 mice, study to Day 64.

For the molecule `CCOC(=O)OC1C(=O)C2(C)C(O)CC3OCC3(OC(C)=O)C2C(OC(=O)c2ccccc2)C2(O)CC(OC(=O)C(O)C(NC(=O)OC(C)(C)C)c3cccs3)C(C)=C1C2(C)C` (stereo not drawn) [Compound 1755, 3'-Desphenyl-3'-(2-thienyl)-10-ethoxycarbonyl-10-deacetyl taxotere], the tolerability result in the data set on SK-MES carcinoma (1755 49 mg/kg i.v.) was “well tolerated”. Moreover, the “Toxic Deaths” value with SK-MES carcinoma (setting [6]) came to 0; in data set [1] (setting [6]) it was 2; in data set [2] (setting [9]), 0. The Survivors with SK-MES carcinoma (number of mice of six, study ended Day 60) is given as 6; in data set [1] (number of mice of six), 4; in data set [2] (setting [9]), 6. The “Stable Disease” value with SK-MES carcinoma (number of mice of six, tumor below 1.5 g at end of study) is 1; in data set [1] (number of mice of six), 1; in data set [2] (setting [9]), 0. For the same molecule, the “Partial Response” value in the data set with SK-MES carcinoma (number of mice of six, tumor smaller than on Day 1) amounted to 0; in data set [1] (number of mice of six), 0; in data set [2] (setting [9]), 2. Moreover, the “Mean Score” value amounted to 9.2 ± 0.8 with SK-MES carcinoma (tumor score 1 to 10 per mouse, averaged per group (10 = complete response)) and 5.8 ± 2 in data set [1] (tumor score 1 to 10 per mouse, averaged per group). Further, in the data set on HCT116 (setting [7]), the IC50 was below 1 nM. The same molecule displayed a total response rate in data set [2] (1755 49 mg/kg single oral bolus Day 1, six mice, study ended Day 60) of 100%. In addition, the complete responses entry in data set [2] (setting [8]) was “four”. Also, in data set [2] (setting [8]), the partial responses entry was “two”. Moreover, the “% Total Response” value in data set [2] (setting [9]) is 100%. In data set [2] (setting [9]), the “Complete Response” value came out at 4.
In the case of `CCOC(=O)OC1C(=O)C2(C)C(O)CC3OCC3(OC(C)=O)C2C(OC(=O)c2ccccc2)C2(O)CC(OC(=O)C(O)C(NC(=O)c3ccccc3)c3ccco3)C(C)=C1C2(C)C` (stereo not drawn) [Compound 4090], the IC50 in the data set on HCT116 (setting [7]) was below 1 nM.
Take `CCOC(=O)OC1C(=O)C2(C)C(O)CC3OCC3(OC(C)=O)C2C(OC(=O)c2ccccc2)C2(O)CC(OC(=O)C(O)C(C=C(C)C)NC(=O)OCC(C)C)C(C)=C1C2(C)C` (stereo not drawn) [Compound 5155]: the IC50 in the data set on HCT116 (setting [7]) was below 10 nM.
On the same count and under the same terms, the figure for `CCOC(=O)OC1C(=O)C2(C)C(O)CC3OCC3(OC(C)=O)C2C(OC(=O)c2ccccc2)C2(O)CC(OC(=O)C(O)C(NC(=O)OC(C)(C)C)C3CC3)C(C)=C1C2(C)C` (stereo not drawn) [Compound 5171] is below 1 nM.
Take `CCOC(=O)OC1C(=O)C2(C)C(O)CC3OCC3(OC(C)=O)C2C(OC(=O)c2ccccc2)C2(O)CC(OC(=O)C(O)C(NC(=O)C(C)C)c3ccco3)C(C)=C1C2(C)C` (stereo not drawn) [Compound 6466]: the IC50 in the data set with HCT116 (setting [7]) is below 10 nM.
Consider `CC(=O)O[C@@]12CO[C@@H]1C[C@H](O)[C@@]1(C)C(=O)[C@H](O)C3=C(C)[C@@H](OC(=O)[C@H](O)[C@@H](NC(=O)OC(C)(C)C)c4ccccc4)C[C@@](O)([C@@H](OC(=O)c4ccccc4)[C@H]21)C3(C)C` [Docetaxel, docetaxel], for which the “MDS (n)” value in data set [3] (Group 5: 70 mg/kg i.v. qd x 1, group of six mice, n=5, 2.0 g endpoint, study to Day 60) was 27.4 ± 3.5 (5) days; in data set [4] (Group 5: 70 mg/kg i.v. qd x 1, 7 mice, n=7, 2.0 g endpoint, study to Day 60), 21.5 ± 0.5(7) days; in data set [5] (Group 5: 70 mg/kg i.v. qd x 1, 6 mice, n=6, 1.5 g endpoint, study to Day 64) it was 45.3 ± 3.6(6) days. Besides, the “Complete Response” value in data set [3] (setting [10]), in data set [4] (setting [13]) and in data set [5] (setting [14]) was 0 throughout. In addition, the “Mean Score” value in data set [3] (setting [10]) is listed as 2.5 ± 0.3; in data set [4] (setting [13]) it was 2 ± 0; in data set [5] (setting [14]) it was 2 ± 0. The “Partial Response” value in data set [3] (setting [10]), in data set [4] (setting [13]) and in data set [5] (setting [14]) was 0 in each case. The “Stable Disease” value in data set [3] (setting [10]), in data set [4] (setting [13]) and in data set [5] (setting [14]) was 0 throughout. Besides, the Survivors in data set [3] (setting [10]) and in data set [4] (setting [13]) was 0 throughout. For the same molecule, the “Toxic Deaths” value in data set [3] (setting [10]), in data set [4] (setting [13]) and in data set [5] (setting [14]) was 0 in each case. In data set [3] (setting [11]), the “increase in survival / survival extension compared to Group 1 controls” value is 134%. Moreover, the MDS is 27.4 days in data set [3] (setting [12]); 21.5 days in data set [4] (setting [12]); 45.3 days in data set [5] (i.v. qd x 1, Taxol 24 mg/kg (four mice), Taxotere 70 mg/kg, 1.5 g endpoint). Further, the IC50 with HCT116 (Homo sapiens, HCT-116) worked out at 0.6 nM. The “survival extension compared to Group 1 controls” value in data set [4] (setting [11]) was 49%.
